This note sets out measurements from US12479831B2, “Substituted N(-methyl-D3)pyridazine-3-carboxamide or M-(methyl-D3)-nicotinamide compounds as IL-12, IL-23 and/or IFNα modulators” (BRISTOL-MYERS SQUIBB COMPANY, priority 2020, dated 2025).

This experiment has as its system IFNα-Induced STAT Phosphorylation in Human Whole Blood. Description: IFNα-Induced STAT Phosphorylation in Human Whole Blood. The conditions noted are these: 1 h incubation with compound, 1000 U/mL recombinant human IFNα A/D for 15 min, pSTAT5 (pY694) median fluorescence intensity in CD3 positive population, read-out: hWB IC50. Format: cell-based. How it is done: IFNα-Induced STAT Phosphorylation in Human Whole Blood
After an hour long incubation with compound, human whole blood (drawn with either EDTA or ACD-A as anti-coagulant) was stimulated with 1000 U/mL recombinant human IFNα A/D (R&D Systems 11200-2) for 15 min. The stimulation was stopped by adding Fix/Lyse buffer (BD 558049). Cells were stained with a CD3 FITC antibody (BD 555916), washed, and permeabilized on ice using Perm III buffer (BD 558050). […] The amount of pSTAT5 expression was quantitated by median fluorescence intensity after gating on the CD3 positive population.
IFNα-Induced STAT Phosphorylation in Human Whole Blood Inhibition Data
By IC50 is commonly meant the concentration needed to halve the response being measured. With `[2H]C([2H])([2H])NC(=O)c1nnc(NC(=O)C2CC2)cc1Nc1cccc(-c2cnc(N(C)C(C)=O)cn2)c1OC` [Example 56, 6-(Cyclopropanecarboxamido)-4-((2-methoxy-3-(5-(N-methylacetamido)pyrazin-2-yl)phenyl)amino)-N-(methyl-d3)pyridazine-3-carboxamide], the IC50 stood at 117 nM.
As to `[2H]C([2H])([2H])NC(=O)c1nnc(NC(=O)C2CC2)cc1Nc1cccc(-c2cnc(N3CCOCC3)cn2)c1OC` [Example 57, 6-(Cyclopropanecarboxamido)-4-((2-methoxy-3-(5-morpholinopyrazin-2-yl)phenyl)amino)-N-(methyl-d3)pyridazine-3-carboxamide], the IC50 came out at 117 nM.
To `[2H]C([2H])([2H])NC(=O)c1nnc(NC(=O)C2CC2)cc1Nc1cccc(-c2cnc(N3CCN(C)CC3)cn2)c1OC` [Example 58, 6-(cyclopropanecarboxamido)-4-((2-methoxy-3-(5-(4-methylpiperazin-1-yl)pyrazin-2-yl)phenyl)amino)-N-(methyl-d3)pyridazine-3-carboxamide] belongs 267 nM; to `[2H]C([2H])([2H])NC(=O)c1nnc(NC(=O)C2CC2)cc1Nc1cccc(-c2cnc(N3CCN(C(C)=O)CC3)cn2)c1OC` [Example 59, 4-((3-(5-(4-acetylpiperazin-1-yl)pyrazin-2-yl)-2-methoxyphenyl)amino)-6-(cyclopropanecarboxamido)-N-(methyl-d3)pyridazine-3-carboxamide], 121 nM; to `[2H]C([2H])([2H])NC(=O)c1cnc(NC(=O)C2CC2)cc1Nc1cccc(-c2cnc(-n3cncn3)cn2)c1OC` [Example 60, 4-((3-(5-(1H-1,2,4-triazol-1-yl)pyrazin-2-yl)-2-methoxyphenyl)amino)-6-(cyclopropanecarboxamido)-N-(methyl-d3)nicotinamide], 1040 nM.
Take `[2H]C([2H])([2H])NC(=O)c1cnc(Nc2cc(C#N)n(C)n2)cc1Nc1cccc(-c2ncccn2)c1OC` [Example 61, 6-((5-Cyano-1-methyl-1H-pyrazol-3-yl)amino)-4-((2-methoxy-3-(pyrimidin-2-yl)phenyl)amino)-N-(methyl-d3)nicotinamide]: the IC50 was 225 nM.
On to `[2H]C([2H])([2H])NC(=O)c1cnc(Nc2cc(C#N)n(C)n2)cc1Nc1cccc(-c2ncc(F)cn2)c1OC` [Example 62, 6-((5-cyano-1-methyl-1H-pyrazol-3-yl)amino)-4-((3-(5-fluoropyrimidin-2-yl)-2-methoxyphenyl)amino)-N-(methyl-d3)nicotinamide], for which the IC50 is 109 nM.
To `[2H]C([2H])([2H])NC(=O)c1cnc(Nc2cc(C)n(C)n2)cc1Nc1cccc(-c2ncc(F)cn2)c1OC` [Example 63, 6-((1,5-dimethyl-1H-pyrazol-3-yl)amino)-4-((3-(5-fluoropyrimidin-2-yl)-2-methoxyphenyl)amino)-N-(methyl-d3)nicotinamide] belongs 49 nM; to `[2H]C([2H])([2H])NC(=O)c1cnc(Nc2cc(C(F)(F)F)n(C)n2)cc1Nc1cccc(-c2ncc(F)cn2)c1OC` [Example 64, 4-((3-(5-fluoropyrimidin-2-yl)-2-methoxyphenyl)amino)-N-(methyl-d3)-6-((1-methyl-5-(trifluoromethyl)-1H-pyrazol-3-yl)amino)nicotinamide], 75 nM.
On to `[2H]C([2H])([2H])NC(=O)c1cnc(Nc2ccn(C)n2)cc1Nc1cccc(-c2ncc(F)cn2)c1OC` [Example 65, 4-((3-(5-fluoropyrimidin-2-yl)-2-methoxyphenyl)amino)-N-(methyl-d3)-6-((1-methyl-1H-pyrazol-3-yl)amino)nicotinamide], for which the IC50 was 86 nM.
As to `[2H]C([2H])([2H])NC(=O)c1cnc(Nc2cc(Cl)n(C)n2)cc1Nc1cccc(-c2ncc(F)cn2)c1OC` [Example 66, 6-((5-chloro-1-methyl-1H-pyrazol-3-yl)amino)-4-((3-(5-fluoropyrimidin-2-yl)-2-methoxyphenyl)amino)-N-(methyl-d3)nicotinamide], the IC50 was found to be 146 nM.
`[2H]C([2H])([2H])NC(=O)c1cnc(Nc2ccn(CC)n2)cc1Nc1cccc(-c2ncc(F)cn2)c1OC` [Example 67, 6-((1-ethyl-1H-pyrazol-3-yl)amino)-4-((3-(5-fluoropyrimidin-2-yl)-2-methoxyphenyl)amino)-N-(methyl-d3)nicotinamide]: the IC50 is 87 nM.
To `[2H]C([2H])([2H])NC(=O)c1cnc(Nc2ccn(C3CC3)n2)cc1Nc1cccc(-c2ncc(F)cn2)c1OC` [Example 68, 6-((1-cyclopropyl-1H-pyrazol-3-yl)amino)-4-((3-(5-fluoropyrimidin-2-yl)-2-methoxyphenyl)amino)-N-(methyl-d3)nicotinamide] belongs 134 nM.
In the case of `[2H]C([2H])([2H])NC(=O)c1cnc(Nc2ccn(C3CC3)n2)cc1Nc1cccc(-c2ncccn2)c1OC` [Example 69, 6-((1-cyclopropyl-1H-pyrazol-3-yl)amino)-4-((2-methoxy-3-(pyrimidin-2-yl)phenyl)amino)-N-(methyl-d3)nicotinamide], the IC50 was found to be 56 nM.
Consider `[2H]C([2H])([2H])NC(=O)c1cnc(Nc2ccccn2)cc1Nc1cccc(-c2ncc(F)cn2)c1OC` [Example 70, 4-((3-(5-fluoropyrimidin-2-yl)-2-methoxyphenyl)amino)-N-(methyl-d3)-6-(pyridin-2-ylamino)nicotinamide], for which the IC50 was found to be 90 nM.
For `[2H]C([2H])([2H])NC(=O)c1cnc(Nc2cnc(C#N)cn2)cc1Nc1cccc(-c2ncc(F)cn2)c1OC` [Example 71, 6-((5-cyanopyrazin-2-yl)amino)-4-((3-(5-fluoropyrimidin-2-yl)-2-methoxyphenyl)amino)-N-(methyl-d3)nicotinamide], the IC50 stood at 278 nM.
To `[2H]C([2H])([2H])NC(=O)c1cnc(Nc2cnc(C#N)cn2)cc1Nc1cccc(-c2ncccn2)c1OC` [Example 72, 6-((5-cyanopyrazin-2-yl)amino)-4-((2-methoxy-3-(pyrimidin-2-yl)phenyl)amino)-N-(methyl-d3)nicotinamide] belongs 168 nM; to `[2H]C([2H])([2H])NC(=O)c1cnc(Nc2ccc(OC)nn2)cc1Nc1cccc(-c2ncc(F)cn2)c1OC` [Example 74, 4-((3-(5-fluoropyrimidin-2-yl)-2-methoxyphenyl)amino)-6-((6-methoxypyridazin-3-yl)amino)-N-(methyl-d3)nicotinamide], 87 nM; to `[2H]C([2H])([2H])NC(=O)c1cnc(Nc2ccc(C(F)(F)F)nn2)cc1Nc1cccc(-c2ncccn2)c1OC` [Example 76, 4-((2-methoxy-3-(pyrimidin-2-yl)phenyl)amino)-N-(methyl-d3)-6-((6-(trifluoromethyl)pyridazin-3-yl)amino)nicotinamide], 77 nM.
To `[2H]C([2H])([2H])NC(=O)c1cnc(Nc2cc(=O)n(C)cn2)cc1Nc1cccc(-c2ncc(F)cn2)c1OC` [Example 77, 4-((3-(5-fluoropyrimidin-2-yl)-2-methoxyphenyl)amino)-N-(methyl-d3)-6-((1-methyl-6-oxo-1,6-dihydropyrimidin-4-yl)amino)nicotinamide] belongs 228 nM; to `[2H]C([2H])([2H])NC(=O)c1nnc(Nc2ccn(C3CC3)n2)cc1Nc1cccc(-c2ncc(F)cn2)c1OC` [Example 78, 6-((1-cyclopropyl-1H-pyrazol-3-yl)amino)-4-((3-(5-fluoropyrimidin-2-yl)-2-methoxyphenyl)amino)-N-(methyl-d3)pyridazine-3-carboxamide], 192 nM.
On to `[2H]C([2H])([2H])NC(=O)c1nnc(Nc2cc(C#N)n(C)n2)cc1Nc1cccc(-c2ncccn2)c1OC` [Example 80, 6-((5-cyano-1-methyl-1H-pyrazol-3-yl)amino)-4-((2-methoxy-3-(pyrimidin-2-yl)phenyl)amino)-N-(methyl-d3)pyridazine-3-carboxamide], for which the IC50 turned out to be 80 nM.
`[2H]C([2H])([2H])NC(=O)c1nnc(Nc2cc(C(C)(C)O)n(C)n2)cc1Nc1cccc(-c2ncccn2)c1OC` [Example 81, 6-((5-(2-hydroxypropan-2-yl)-1-methyl-1H-pyrazol-3-yl)amino)-4-((2-methoxy-3-(pyrimidin-2-yl)phenyl)amino)-N-(methyl-d3)pyridazine-3-carboxamide]: the IC50 worked out at 14 nM.
As for `[2H]C([2H])([2H])NC(=O)c1nnc(Nc2cc(C(C)(C)O)n(C)n2)cc1Nc1cccc(-c2ncc(F)cn2)c1OC` [Example 82, 4-((3-(5-fluoropyrimidin-2-yl)-2-methoxyphenyl)amino)-6-((5-(2-hydroxypropan-2-yl)-1-methyl-1H-pyrazol-3-yl)amino)-N-(methyl-d3)pyridazine-3-carboxamide], the figure is 49 nM; as for `[2H]C([2H])([2H])NC(=O)c1nnc(Nc2cc(C(C)(C)O)n(C)n2)cc1Nc1cc(F)cc(-c2ncc(F)cn2)c1OC` [Example 83, 4-((5-fluoro-3-(5-fluoropyrimidin-2-yl)-2-methoxyphenyl)amino)-6-((5-(2-hydroxypropan-2-yl)-1-methyl-1H-pyrazol-3-yl)amino)-N-(methyl-d3)pyridazine-3-carboxamide], 77 nM.
Consider `[2H]C([2H])([2H])NC(=O)c1nnc(Nc2cc(C(C)(C)O)n(C)n2)cc1Nc1cc(F)cc(-c2ncccn2)c1OC` [Example 84, 4-((5-fluoro-2-methoxy-3-(pyrimidin-2-yl)phenyl)amino)-6-((5-(2-hydroxypropan-2-yl)-1-methyl-1H-pyrazol-3-yl)amino)-N-(methyl-d3)pyridazine-3-carboxamide], for which the IC50 amounted to 19 nM.
